Here are results for three compounds from ChEMBL document CHEMBL6074684, “Structure-activity relationship study of novel evodiamine amino acid conjugates with potent anti-colorectal cancer efficacy” (Eur J Med Chem, 2025).

SMILES strings stand for the structures. The source made the active and inactive calls. The rule behind the calls is not given here.

A short description of data set [1]: Toxicity in male BALB/c nude mouse xenografted with human HT-29 cells assessed as body weight loss at 0.5 mg/kg, ip administered once daily for 14 days. In kind it is organism-based. The settings on record: in vivo, 336 h, time 14 day.
Data set [2] in a line: Toxicity in male BALB/c nude mouse xenografted with human HT-29 cells assessed as animal death at 0.5 mg/kg, ip administered once daily for 14 days. In kind it is organism-based. Conditions: in vivo, 336 h, time 14 day. Background: In xenograft studies the graft and the host belong to different species.
Data set [3] relates to HT-29. Briefly: Antitumor activity against human HT-29 cells xenografted in male BALB/c nude mouse assessed as tumor growth inhibition at 0.5 mg/kg, ip administered once daily for 14 days relative to control. In kind it is functional. Conditions: HT-29, 336 h, time 14 day, read-out: TGI.
Data set [4] is described as follows: Toxicity in male BALB/c nude mouse xenografted with human LoVo cells assessed as animal death at 0.5 mg/kg, ip administered once daily for 14 days. The settings on record: in vivo, 336 h, time 14 day. In kind it is organism-based.
Data set [5] in a line: Toxicity in male BALB/c nude mouse xenografted with human LoVo cells assessed as body weight loss at 0.5 mg/kg, ip administered once daily for 14 days. Conditions: in vivo, 336 h, time 14 day. In kind it is organism-based.
Data set [6] deals with LoVo. The data set is described as follows: Antitumor activity against human LoVo cells xenografted in male BALB/c nude mouse assessed as tumor growth inhibition at 0.5 mg/kg, ip administered once daily for 14 days. In kind it is functional, organism-based. The settings on record: time 14.0 day.
Data set [7] relates to LoVo. Briefly: Antiproliferative activity against human LoVo cells assessed as inhibition of cell growth incubated for 72 hrs by MTT assay. In kind it is functional, cell-based.
In data set [8] the test system is SGC-7901. The data set is described as follows: Antiproliferative activity against human SGC-7901 cells assessed as inhibition of cell growth incubated for 72 hrs by MTT assay. In kind it is functional, cell-based. Conditions: SGC-7901, 72 h. Background: Formazan colour is commonly taken as a measure of viable cells.
The test system of data set [9] is HCT-116. Briefly: Antiproliferative activity against human […] cells assessed as inhibition of cell growth incubated for 72 hrs by MTT assay. In kind it is functional, cell-based. Conditions: HCT-116, 72 h.
Data set [10] has as its system MGC-803. Briefly: Antiproliferative activity against human MGC-803 cells assessed as inhibition of cell growth incubated for 72 hrs by MTT assay. In kind it is functional, cell-based. The settings on record: MGC-803, 72 h.
In data set [11] the test system is MCF7. Briefly: Antiproliferative activity against human MCF7 cells assessed as inhibition of cell growth incubated for 72 hrs by MTT assay. In kind it is functional, cell-based. Conditions: MCF7, 72 h.
Data set [12] relates to Huh-7. Briefly: Antiproliferative activity against human Huh-7 cells assessed as inhibition of cell growth incubated for 72 hrs by MTT assay. In kind it is functional, cell-based. The settings on record: Huh-7, 72 h.
The test system of data set [13] is RKO. The data set is described as follows: Antiproliferative activity against human RKO cells assessed as inhibition of cell growth incubated for 72 hrs by MTT assay. In kind it is functional, cell-based.
Data set [14] has as its system HT-29. Briefly: Antiproliferative activity against human HT-29 cells assessed as inhibition of cell growth incubated for 72 hrs by MTT assay. In kind it is functional, cell-based. The settings on record: HT-29, 72 h.
The subject of data set [15] is SK-HEP1. Briefly: Antiproliferative activity against human SK-HEP1 cells assessed as inhibition of cell growth incubated for 72 hrs by MTT assay. In kind it is functional, cell-based. Conditions: SK-HEP1, 72 h.
Data set [16] deals with HGC-27. The data set is described as follows: Antiproliferative activity against human HGC-27 cells assessed as inhibition of cell growth incubated for 72 hrs by MTT assay. In kind it is functional, cell-based. The settings on record: HGC-27, 72 h.

Regarding `CC[C@@]1(O)C(=O)OCc2c1cc1n(c2=O)Cc2cc3c(CN(C)C)c(O)ccc3nc2-1` [TOPOTECAN], the Activity result in data set [1], in data set [2], in data set [4] and in data set [5] was “Toxic” each time. Moreover, the inhibition in vivo at 0.5 mg/kg in data set [3] turned out to be 70.7%. Also, the outcome in data set [6] was Active.

In general, IC50 refers to the concentration that inhibits the measured activity by half. With `CC(C)C[C@H](NC(=O)OC(C)(C)C)C(=O)Oc1ccc2[nH]c3c(c2c1)CCN1C(=O)c2cc(F)ccc2N(c2cccc(F)c2)[C@@H]31`, the IC50 in data set [7] worked out at 10.2 µM; in data set [8] it was 41.8 µM; in [9], 16.8 µM; in data set [10], 7.56 µM; in data set [11] it was 22.7 µM; in data set [12], 9.73 µM. The IC50 was found to be 10.5 µM in [13], 21.4 µM in [14], 35.1 µM in [15] and 18.6 µM in data set [16].

Consider `C[C@H](NC(=O)OC(C)(C)C)C(=O)Oc1ccc2[nH]c3c(c2c1)CCN1C(=O)c2cc(F)ccc2N(c2cccc(F)c2)[C@@H]31`, for which the IC50 in [7] stood at 19.7 µM; in data set [8], 40.2 µM; in [9], 18.2 µM; in data set [10], 11.3 µM; in data set [11], 28.5 µM; in data set [12], 11.7 µM. The IC50 in data set [13] amounted to 15.9 µM; in data set [14] it was 18.6 µM; in [15] it was 26.6 µM; in data set [16], 20.3 µM.
